From patent US4596828A, “[(2-hydroxy-5-alkoxyphenyl)methylthio]phenylmethanol and derivatives thereof useful as anti-inflammatory agents” (Merck & Co., Inc., priority 1985, dated 1986)

System: inflammatory responses elicited by topically applied phorbol myristate acetate (PMA) or arachidonic acid (AA) in mouse ears
Experiment: Topical mouse ear assay (TME): edema measured by wet weight after topical PMA or AA
Type: in vivo
Conditions: mean, N=5 mice/group
Description: The topical mouse ear assay (TME) was used to evaluate the novel compounds of the present invention for its effect on inflammatory responses elicited by topically applied phorbol myristate acetate (PMA) or topically applied archidonic acid (AA).
Method: The right ears of mice (5 mice per group) were treated topically with either […] or 1000 μg AA alone or with the test compound in 25 μl of vehicle. The vehicle was water/pyridine/acetone (1:2:97). A control group of mice received the vehicle only. The mice were allowed food and water ad libitum during the treatment period; 2 hours for AA and 4 hours for PMA. The mice were sacrificed by cervical dislocation and a 6 mm diameter disc of tissue punched from both the treated and untreated ears. The tissue biopsies were immediately weighed and the weight increase of the treated ear relative to the weight of the untreated ear determined.
All of the data are expressed as the mean ±SEM, N=5 mice/group.

COc1ccc(O)c(CSc2ccccc2CO)c1 [Compound A, 2-[2-(Hydroxymethyl)phenylthiomethyl]-4-methoxyphenol]
Edema (% inhibition) (dosage 30 μg): 12% | Edema (% inhibition) (dosage 50 μg): 16% | Edema (% inhibition) (dosage 200 μg): 55% | Edema (% inhibition) (dosage 300 μg): 63%

C[C@@H]1C[C@H]2[C@@H]3CCC4=CC(=O)C=C[C@]4(C)[C@@]3(F)[C@@H](O)C[C@]2(C)[C@@]1(O)C(=O)CO [Dexamethasone, reference compound]
Edema (% inhibition) (dosage 5 μg): 60%

COc1ccc2c(c1)c(CC(=O)O)c(C)n2C(=O)c1ccc(Cl)cc1 [Indomethacin, reference compound]
Edema (% inhibition) (dosage 150 μg): 51%
